COC(=O)Nc1nc2ccccc2[nH]1
solubility (mole fraction)
Details	278.15 K	283.15 K	288.15 K	293.15 K	298.15 K	303.15 K	308.15 K	313.15 K	318.15 K	323.15 K
in ethanol	6.39e-06	1.05e-05	1.58e-05	2.3e-05	3.19e-05	4.34e-05	5.78e-05	7.66e-05	0.000101	0.000134
in methanol	3.19e-05	4e-05	5.2e-05	6.33e-05	7.77e-05	9.85e-05	0.000118	0.000143	0.000173	0.000201
in n-butanol	2.12e-06	3.75e-06	6.22e-06	9.84e-06	1.5e-05	2.28e-05	3.34e-05	5.07e-05	7.61e-05	0.000111
in n-pentanol	1e-06	2e-06	3.62e-06	6.19e-06	1.05e-05	1.69e-05	2.87e-05	4.55e-05	6.8e-05	0.000101
in n-propanol	3.3e-06	5.42e-06	8.66e-06	1.3e-05	1.89e-05	2.73e-05	3.92e-05	5.57e-05	8.38e-05	0.00012

From BigSolDB 2.1
